Experimental data from PubChem BioAssay (NCI).
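How tested: cells in 96-well plates exposed to compound for 48 hours at five concentrations. GI50 is the concentration that inhibits growth by half. TGI is the concentration that stops growth completely.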

What was measured:
Assay in all cases: growth of human tumour cells (NCI), 48 h
UO-31 renal = system: UO-31 renal
M14 melanoma = system: M14 melanoma
HT29 colon = system: HT29 colon
SK-MEL-28 melanoma = system: SK-MEL-28 melanoma
MALME-3M melanoma = system: MALME-3M melanoma
UACC-257 melanoma = system: UACC-257 melanoma
MOLT-4 leukemia = system: MOLT-4 leukemia
HL-60(TB) leukemia = system: HL-60(TB) leukemia
OVCAR-3 ovarian = system: OVCAR-3 ovarian
CCRF-CEM leukemia = system: CCRF-CEM leukemia
MDA-MB-435 = system: MDA-MB-435
SW-620 colon = system: SW-620 colon
OVCAR-5 ovarian = system: OVCAR-5 ovarian
HOP-62 NSCLC = system: HOP-62 NSCLC
IGROV1 ovarian = system: IGROV1 ovarian
A498 renal = system: A498 renal
MDA-MB-231 breast = system: MDA-MB-231 breast
ACHN renal = system: ACHN renal
NCI/ADR-RES ovarian = system: NCI/ADR-RES ovarian
NCI-H23 lung = system: NCI-H23 lung
SF-295 CNS = system: SF-295 CNS
SK-OV-3 ovarian = system: SK-OV-3 ovarian
SK-MEL-5 melanoma = system: SK-MEL-5 melanoma
EKVX NSCLC = system: EKVX NSCLC
SNB-19 CNS = system: SNB-19 CNS
OVCAR-4 ovarian = system: OVCAR-4 ovarian
K-562 leukemia = system: K-562 leukemia
SNB-75 CNS = system: SNB-75 CNS
COLO 205 colon = system: COLO 205 colon
NCI-H460 lung = system: NCI-H460 lung
UACC-62 melanoma = system: UACC-62 melanoma
SF-539 CNS = system: SF-539 CNS
KM12 colon = system: KM12 colon
786-0 renal = system: 786-0 renal
T-47D breast = system: T-47D breast
OVCAR-8 ovarian = system: OVCAR-8 ovarian
LOX IMVI melanoma = system: LOX IMVI melanoma
HS 578T breast = system: HS 578T breast
SN12C renal = system: SN12C renal
NCI-H226 lung = system: NCI-H226 lung
HOP-92 NSCLC = system: HOP-92 NSCLC
TK-10 renal = system: TK-10 renal
HCT-15 colon = system: HCT-15 colon
BT-549 breast = system: BT-549 breast
SK-MEL-2 melanoma = system: SK-MEL-2 melanoma
MCF7 breast = system: MCF7 breast
RPMI-8226 leukemia = system: RPMI-8226 leukemia
SF-268 CNS = system: SF-268 CNS
PC-3 prostate = system: PC-3 prostate
NCI-H522 lung = system: NCI-H522 lung
HCC-2998 colon = system: HCC-2998 colon
HCT-116 colon = system: HCT-116 colon
CAKI-1 renal = system: CAKI-1 renal
RXF 393 renal = system: RXF 393 renal
A549 NSCLC = system: A549 NSCLC
U251 CNS = system: U251 CNS
DU-145 prostate = system: DU-145 prostate

`O=C1/C(=C/c2ccc([N+](=O)[O-])cc2)CN(C(=O)CCN2CCC(=NO)CC2)C/C1=C\c1ccc([N+](=O)[O-])cc1` showed a GI50 (UO-31 renal) of 1140 nM, a TGI (UO-31 renal) of 2550 nM and a GI50 (M14 melanoma) of 1510 nM. The TGI (M14 melanoma) was 6400 nM, the GI50 (HT29 colon) was 477 nM and the TGI (HT29 colon) was 1930 nM. For the same compound, the GI50 (SK-MEL-28 melanoma) was 1930 nM, the TGI (SK-MEL-28 melanoma) was 4720 nM and the GI50 (MALME-3M melanoma) was 2040 nM. The TGI (MALME-3M melanoma) was 6900 nM, the GI50 (UACC-257 melanoma) was 2430 nM and the TGI (UACC-257 melanoma) was 7970 nM. It also gave a GI50 (MOLT-4 leukemia) of 409 nM, a TGI (MOLT-4 leukemia) greater than 20000 nM and a GI50 (HL-60(TB) leukemia) of 1850 nM. It also gave a TGI (HL-60(TB) leukemia) of 6880 nM, a GI50 (OVCAR-3 ovarian) of 801 nM and a TGI (OVCAR-3 ovarian) of 2310 nM. For the same compound, the GI50 (CCRF-CEM leukemia) was 534 nM, the TGI (CCRF-CEM leukemia) was 9930 nM and the GI50 (MDA-MB-435) was 1000 nM. It also gave a TGI (MDA-MB-435) of 3450 nM, a GI50 (SW-620 colon) of 311 nM and a TGI (SW-620 colon) of 982 nM. The GI50 (OVCAR-5 ovarian) was 1570 nM, the TGI (OVCAR-5 ovarian) was 3970 nM and the GI50 (HOP-62 NSCLC) was 1910 nM. It also gave a TGI (HOP-62 NSCLC) of 6970 nM, a GI50 (IGROV1 ovarian) of 817 nM and a TGI (IGROV1 ovarian) of 2750 nM. For the same compound, the GI50 (A498 renal) was 1750 nM, the TGI (A498 renal) was 3950 nM and the GI50 (MDA-MB-231 breast) was 869 nM. It also gave a TGI (MDA-MB-231 breast) of 2920 nM, a GI50 (ACHN renal) of 893 nM and a TGI (ACHN renal) of 2460 nM. It also gave a GI50 (NCI/ADR-RES ovarian) of 1490 nM, a TGI (NCI/ADR-RES ovarian) of 17800 nM and a GI50 (NCI-H23 lung) of 1530 nM. It also gave a TGI (NCI-H23 lung) of 4580 nM, a GI50 (SF-295 CNS) of 2090 nM and a TGI (SF-295 CNS) of 5390 nM. It also gave a GI50 (SK-OV-3 ovarian) of 5960 nM, a TGI (SK-OV-3 ovarian) of 17400 nM and a GI50 (SK-MEL-5 melanoma) of 1990 nM. The TGI (SK-MEL-5 melanoma) was 4380 nM, the GI50 (EKVX NSCLC) was 2300 nM and the TGI (EKVX NSCLC) was 10100 nM. The GI50 (SNB-19 CNS) was 1080 nM, the TGI (SNB-19 CNS) was 5130 nM and the GI50 (OVCAR-4 ovarian) was 1310 nM. For the same compound, the TGI (OVCAR-4 ovarian) was 5360 nM, the GI50 (K-562 leukemia) was 216 nM and the TGI (K-562 leukemia) was greater than 60900 nM. For the same compound, the GI50 (SNB-75 CNS) was 1950 nM, the TGI (SNB-75 CNS) was 9050 nM and the GI50 (COLO 205 colon) was 2330 nM. It also gave a TGI (COLO 205 colon) of 5930 nM, a GI50 (NCI-H460 lung) of 1150 nM and a TGI (NCI-H460 lung) of 3950 nM. For the same compound, the GI50 (UACC-62 melanoma) was 866 nM, the TGI (UACC-62 melanoma) was 2490 nM and the GI50 (SF-539 CNS) was 969 nM. The TGI (SF-539 CNS) was 2910 nM, the GI50 (KM12 colon) was 448 nM and the TGI (KM12 colon) was 1180 nM. The GI50 (786-0 renal) was 1060 nM, the TGI (786-0 renal) was 3660 nM and the GI50 (T-47D breast) was 1840 nM. The TGI (T-47D breast) was 9270 nM, the GI50 (OVCAR-8 ovarian) was 806 nM and the TGI (OVCAR-8 ovarian) was 5500 nM. For the same compound, the GI50 (LOX IMVI melanoma) was 296 nM, the TGI (LOX IMVI melanoma) was 739 nM and the GI50 (HS 578T breast) was 1980 nM. It also gave a TGI (HS 578T breast) of 9860 nM, a GI50 (SN12C renal) of 677 nM and a TGI (SN12C renal) of 2510 nM. The GI50 (NCI-H226 lung) was 2030 nM, the TGI (NCI-H226 lung) was 5410 nM and the GI50 (HOP-92 NSCLC) was 2810 nM. The TGI (HOP-92 NSCLC) was 9360 nM, the GI50 (TK-10 renal) was 2010 nM and the TGI (TK-10 renal) was 6140 nM. The GI50 (HCT-15 colon) was 771 nM, the TGI (HCT-15 colon) was 3900 nM and the GI50 (BT-549 breast) was 1710 nM. The TGI (BT-549 breast) was 4320 nM, the GI50 (SK-MEL-2 melanoma) was 4740 nM and the TGI (SK-MEL-2 melanoma) was 16600 nM. It also gave a GI50 (MCF7 breast) of 431 nM, a TGI (MCF7 breast) of 2870 nM and a GI50 (RPMI-8226 leukemia) of 368 nM. The TGI (RPMI-8226 leukemia) was 1600 nM, the GI50 (SF-268 CNS) was 1070 nM and the TGI (SF-268 CNS) was 6010 nM. It also gave a GI50 (PC-3 prostate) of 583 nM, a TGI (PC-3 prostate) of 2380 nM and a GI50 (NCI-H522 lung) of 860 nM. It also gave a TGI (NCI-H522 lung) of 3280 nM, a GI50 (HCC-2998 colon) of 1000 nM and a TGI (HCC-2998 colon) of 2620 nM. For the same compound, the GI50 (HCT-116 colon) was 552 nM, the TGI (HCT-116 colon) was 1530 nM and the GI50 (CAKI-1 renal) was 756 nM. It also gave a TGI (CAKI-1 renal) of 2390 nM, a GI50 (RXF 393 renal) of 1490 nM and a TGI (RXF 393 renal) of 3140 nM. For the same compound, the GI50 (A549 NSCLC) was 2850 nM, the TGI (A549 NSCLC) was 12400 nM and the GI50 (U251 CNS) was 509 nM. It also gave a TGI (U251 CNS) of 2030 nM, a GI50 (DU-145 prostate) of 1610 nM and a TGI (DU-145 prostate) of 4650 nM.
